This is an account of results in patent publication USRE33897E, “Synthetic polypeptides and antibodies related to Epstein-Barr virus nuclear antigen” (Scripps Clinic and Research Foundation, priority 1989, dated 1992).

Data set [1] concerns anti-EBNA antibodies. Description: ELISA with polypeptide as solid phase antigen, detecting anti-polypeptide antibodies in sera. The class given is binding, human. As to conditions: for Average titer of Progressive Systemic Schlerosis (PSS) patients to polypeptide compared with normals: high and low serum dilutions; for Reaction of VCA- sera with polypeptide: panel of 19 VCA- sera; for Reactivity of sera of EBV non-immune donors to polypeptide: panel of 27 EBV non-immune (VCA-) donors; for Number of 91 anti-EBNA positive (ACIF) sera positive against polypeptide: sera at 1:20 dilution; for Antibodies binding to polypeptide before and after EBV-induced infectious mononucleosis: sera of two subjects; for Reaction of sera of clinically normal VCA+ individuals with polypeptide: two serum dilutions. Here is the method:
A solution containing a substrate for the enzyme label such as hydrogen peroxide for peroxidase and a color-forming dye precursor such as o-phenylenediamine, or p-nitrophenyl phosphate for alkaline phosphatase is thereafter admixed with the solid phase.
(§1) Anti-peptide antibody binding and inhibition studies were carried out by an enzyme-linked immunosorbent assay (ELISA) as described below.
(§2) Briefly, microtiter wells (Costar, #3590, Cambridge, Mass.) were coated with individual polypeptides as antigens by adding 100 microliters (ul) of BBS [10 millimoler (mM) sodium borate (pH 8.3), 150 mM NaCl] containing polypeptide at a concentration of 10 micrograms per milliliter (ug/ml). Contact between the wells and antigen-containing solution was maintained for a predetermined time, typically 15 minutes, and at 20 degrees C., to form an antigen-coated solid phase. The solid and liquid phases were separated and the wells were washed three times with BBS.
Non-specific binding sites were blocked by admixing 200 microliters of 1% bovine serum albumin (BSA) in each well to form another solid-liquid phase admixture, and maintaining that solid-liquid phase admixture for 30 minutes, at 20 degrees C. The phases were separated and excess, unbound BSA was removed by washinq three times with BBS.
[…] Contact between the diluted sera and the antigen-coated solid phase was maintained for a predetermined time such as 1 hour, and at 20 degrees C., for an immunoreactant to form. The solid and liquid phases were separated, and the solid phase; i.e., antigen-coated, immunoreactant-containing wells, was then washed three times with BBS.
The antibodies in human sera that immunoreacted with an adsored polypeptide were detected using an indicating means comprising alkaline phosphatase-conjugated goat anti-human Ig antibody (Tago, Burlington, CA). The antibodies in rabbit sera that immunoreacted with an adsorbed polypeptide were detected using an indicating means comprising alkaline phosphatase-conjugated goat anti-rabbit Ig antibody (Kirkegard & Perry Laboratories, Inc., Gaithersburg, Md.). In either instance, 100 microliters of the indicating antibody diluted 1:300 in BBS were added per well to form a further solid-liquid phase composition. This solidliquid phase composition was maintained for a predetermined time, one hour, for the formation of a reaction product between the human antibodies bound to the solid phase and the indicating means, and at 20 degrees C.
(ELISA stands for enzyme-linked immunosorbent assay.)

The nature of data set [2]: Circular dichroism spectroscopy of polypeptides in phosphate buffered saline. The class given is physicochemical. The conditions noted are these: 1 mg/ml. The protocol:
The conformational properties of the polypeptides were investigated to elucidate any secondary structure that might be necessary for polypeptide immunoreaction with human anti-EBNA antibodies. The polypeptides were dissolved at a concentration of 1 mg/ml in phosphate-buffered saline (PBS). Spectra were taken using 1 ml samples in a Cary 61 spectropolarimeter (Cary Instruments, Applied Physics Corp., Monrovia, Calif.) interfaced and automated with a Digital Equipment Corporation 11/02 computer (Digital Equipment Corporation, Maynard, Mass.).

Data set [3] relates to EBNA. Put plainly: Immunoblotting of whole cell extracts with rabbit anti-polypeptide antisera. It is filed as binding, Epstein-Barr virus. As to conditions: for Inhibition of recognition of EBNA by anti-P62 serum: anti-P62 serum 1:10 incubated with 40 ug/ml polypeptide for one hour. The protocol: Exemplary receptor molecules containing antibody combining sites of this invention raised in rabbits to the polypeptides shown in Table 1 were studied using the immunoblotting procedures of Towbin, et. al., Proc. Natl. Acad. Sci., U.S.A., 76:4350-4354 (1979) and Billings, et. al., Proc. Natl. Acad. Sci., U.S.A., 80:7104-7108 (1983). Further details are provided in the Materials and Methods section (II).
Extracts of EBNA producing and non-producing (control) cells were prepared to determine if receptor molecules of this invention were useful for diagnosing EBNA expression. Cells from cultures described hereinabove were washed in phosphate-buffered saline (PBS; 150 mM NaCl, 10 mM sodium phosphate, pH 7.4) containing 0.2 mM phenylmethylsulfonyl fluoride, swollen for 5 minutes in reticulocyte standard buffer (RSB; 10 mM NaCl, 10 mM Tris-HCl, pH 7.4, 1.5 mM MgCl2, 0.2 mM phenylmethylsulfonyl fluoride), and lysed by sonication in 3-5 volumes of RBS adjusted to 0.2-0.35 molar (M) NaCl. After 30 minutes on ice, the sonicate was centrifuged at 10,000×g for 15 minutes to remove cellular debris.
Cell extracts obtained above were assayed for EBNA using human sera known to contain anti-EBNA antibodies or exemplary receptor molecules of this invention. Tne extracts were either concentrated by precipitation with 2 volumes of ethanol at -20 degrees C. for about 18 hours, and were then dissolved in sample buffer [SB; 10% glycerol, 2% 2-mercaptoethanol, 1% sodium dodecyl sulfate (SDS), 0.002% bromphenol blue, 40 mM Tris-HCl (pH 7.4)] or diluted 1:6 in sample buffer for SDS-polyacrylamide gel electrophoresis (SDS-PAGE). 7.5% Polyacrylamide gels were cast and run according to the procedure of Laemmli, Nature, […] (1970), applying 50 to 200 micorgrams of total protein per lane. […]
Anti-peptide antibodies bound to EBNA protein were detected by reacting the blots with an indicating means. […]
Background: In western blotting, separated proteins are transferred to a membrane and probed.

Data set [4] has as its system rabbit anti-polypeptide antibody to polypeptide P62. Description: Competition ELISA: rabbit anti-polypeptide P62 antibody binding to solid phase P62. As to conditions: antibody first incubated with competing polypeptide. The protocol:
as §1, §2
Non-specific binding sites were blocked by admixing 200 microliters of 1% bovine serum albumin (BSA) in each well to form another solid-liquid phase admixture, and maintaining that solid-liquid phase admixture for 30 minutes, at 20 degrees C. […]
The antibodies in human sera that immunoreacted with an adsored polypeptide were detected using an indicating means comprising alkaline phosphatase-conjugated goat anti-human Ig antibody (Tago, Burlington, CA). The antibodies in rabbit sera that immunoreacted with an adsorbed polypeptide were detected using an indicating means comprising alkaline phosphatase-conjugated goat anti-rabbit Ig antibody (Kirkegard & Perry Laboratories, Inc., Gaithersburg, Md.). […]

The mark [5] stands for this setting: serum MV post-mononucleosis, dilution 1:20.
The mark [6] stands for this setting: serum MV pre-mononucleosis, dilution 1:20.
[7] abbreviates: serum SB post-mononucleosis, dilution 1:20.
The mark [8] stands for this setting: serum SB pre-mononucleosis, dilution 1:20.
Where [9] appears, read: serum VCA + Normal 1, dilution 1:20.
[10] abbreviates: serum VCA + Normal 2, dilution 1:20.

Entries after “also recorded” stand apart in the source; their conditions may differ. Residues, ends and D or L forms follow the SMILES beside them.

`C[C@H](NC(=O)CNC(=O)CNC(=O)[C@H](C)NC(=O)CNC(=O)[C@H](C)NC(=O)CNC(=O)CNC(=O)CN)C(=O)NCC(=O)N[C@@H](C)C(=O)NCC(=O)NCC(=O)NCC(=O)NCC(=O)N[C@@H](CCCNC(=N)N)C(=O)O` [Polypeptide P60, H--Gly--Gly--Gly--Ala--Gly--Ala--Gly--Gly--Ala--Gly--Ala--Gly--Gly--Gly--Gly--Arg--OH] (H-GGGAGAGGAGAGGGGR-OH): in data set [1] (VCA- Normals (n = 27), dilution 1:20), the “OD405 × 10^3 obtained with patient antibodies to polypeptide, average ± one standard deviation” value came out at 45 ± 18 OD405 × 10^3. Besides, in data set [1], the “Average titer of Progressive Systemic Schlerosis (PSS) patients to polypeptide compared with normals” value was “relatively higher average titer”. Moreover, the “Reaction of VCA- sera with polypeptide” value in data set [1] is “None of the VCA- sera were found to react positively”. Besides, the “Reactivity of sera of EBV non-immune donors to polypeptide” value in data set [1] was “None of tne sera displayed significant reactivity”. Further, the “Number of 91 anti-EBNA positive (ACIF) sera positive against polypeptide” value in data set [1] was 91. The “Antibodies binding to polypeptide before and after EBV-induced infectious mononucleosis” value (shortened to “Antibodies binding”) in data set [1] is “absent before infection, but appeared afterward”. Further, the “OD405 × 10^3 obtained with patient antibodies to polypeptide” value came out at 162 OD405 × 10^3 in data set [1] (setting [5]); 72 OD405 × 10^3 in data set [1] (setting [6]); 115 OD405 × 10^3 in data set [1] (setting [7]); 51 OD405 × 10^3 in data set [1] (setting [8]); 154 OD405 × 10^3 in data set [1] (setting [9]); 145 OD405 × 10^3 in data set [1] (setting [10]). The “Reaction of sera of clinically normal VCA+ individuals with polypeptide” value in data set [1] is “all of the VCA+ indiviuals were positive”. In addition, the “Conformation indicated by circular dichroism spectrum” value in data set [2] is “very similar spectra”. For the same compound, the “Inhibition of recognition of EBNA by anti-P60 serum” value in data set [3] (anti-P60 serum 1:50 incubated with 40 ug/ml polypeptide for one hour) is recorded as “innibited”. For the same compound, in data set [3], the “Inhibition of recognition of EBNA by anti-P62 serum” value is “inhibited”.
Take `C[C@H](N)C(=O)NCC(=O)N[C@@H](C)C(=O)NCC(=O)NCC(=O)NCC(=O)N[C@@H](C)C(=O)NCC(=O)NCC(=O)N[C@@H](C)C(=O)NCC(=O)N[C@@H](C)C(=O)NCC(=O)NCC(=O)NCC(=O)N[C@@H](C)C(=O)NCC(=O)NCC(=O)N[C@@H](C)C(=O)NCC(=O)O` [Polypeptide P62, H-Ala--Gly--Ala--Gly--Gly--Gly--Ala--Gly--Gly--Ala--Gly--Ala--Gly--Gly--Gly--Ala--Gly--Gly--Ala--Gly--OH] (H-AGAGGGAGGAGAGGGAGGAG-OH): in data set [1], the “Average titer of Progressive Systemic Schlerosis (PSS) patients to polypeptide compared with normals” value is recorded as “relatively higher average titer”, the “Reaction of VCA- sera with polypeptide” value was “None of the VCA- sera were found to react positively”, the “Reactivity of sera of EBV non-immune donors to polypeptide” value is given as “None of tne sera displayed significant reactivity” and the “Number of 91 anti-EBNA positive (ACIF) sera positive against polypeptide” value amounted to 91. Further, in data set [1], the “Antibodies binding” value is “absent before infection, but appeared afterward”; the “Reaction of sera of clinically normal VCA+ individuals with polypeptide” value was “all of the VCA+ indiviuals were positive”. The “Time course of anti-P62 antibodies after onset of infectious mononucleosis versus ACIF anti-EBNA titer” value in data set [1] (one-half of 8 students (e.g. patient 15)) was “rose in parallel with the corresponding anti-EBNA titer”. In data set [1] (other half of 8 students (e.g. patients 14 and 2)), the “Time of detection of antibodies against polypeptide after onset of infectious mononucleosis” value is recorded as “detected in the first month after the onset of symptoms”. In data set [1] (sera at 1:320 dilution), the “Number of 91 EBNA positive sera immunoreacting with polypeptide” value came out at 83. Besides, the “OD405 × 10^3 obtained with patient antibodies to polypeptide” value in data set [1] (setting [5]) came to 631 OD405 × 10^3. Also, in data set [1] (setting [6]), the “OD405 × 10^3 obtained with patient antibodies to polypeptide” value stood at 77 OD405 × 10^3. The “OD405 × 10^3 obtained with patient antibodies to polypeptide” value in data set [1] (setting [7]) was found to be 514 OD405 × 10^3. Further, the “OD405 × 10^3 obtained with patient antibodies to polypeptide” value in data set [1] (setting [8]) is listed as 13 OD405 × 10^3. Further, the “OD405 × 10^3 obtained with patient antibodies to polypeptide” value in data set [1] (setting [9]) is recorded as 958 OD405 × 10^3. In addition, the “OD405 × 10^3 obtained with patient antibodies to polypeptide” value in data set [1] (setting [10]) came out at 819 OD405 × 10^3. The “Conformation indicated by circular dichroism spectrum” value in data set [2] was “relatively stable secondary structure”. For the same compound, the “Inhibition of recognition of EBNA by anti-P62 serum” value in data set [3] is given as “inhibited”.
`CSCC[C@H](NC(=O)[C@@H]1CCCN1C(=O)[C@H](CCCNC(=N)N)NC(=O)[C@H](CCCCN)NC(=O)[C@H](CCC(=O)O)NC(=O)CNC(=O)[C@H](CCCNC(=N)N)NC(=O)CNC(=O)[C@H](CCCNC(=N)N)NC(=O)CNC(=O)[C@H](CCCNC(=N)N)NC(=O)CNC(=O)[C@H](CCCNC(=N)N)NC(=O)[C@H](C)NC(=O)[C@@H](N)CCCNC(=N)N)C(=O)O` [Polypeptide P89, H--Arg--Ala--Arg--Gly--Arg--Gly--Arg--Gly--Arg--Gly--Glu--Lys--Arg--Pro--Met--OH] (H-RARGRGRGRGEKRPM-OH): the “Antibodies binding” value in data set [1] is reported as “no antibodies were produced”. For the same compound, the “OD405 × 10^3 obtained with patient antibodies to polypeptide” value turned out to be 25 OD405 × 10^3 in data set [1] (setting [5]); 29 OD405 × 10^3 in data set [1] (setting [6]); 23 OD405 × 10^3 in data set [1] (setting [7]); 9 OD405 × 10^3 in data set [1] (setting [8]); 23 OD405 × 10^3 in data set [1] (setting [9]); 16 OD405 × 10^3 in data set [1] (setting [10]). The “Inhibition of binding of anti-polypeptide P62 to solid phase polypeptide P62” value in data set [4] is given as “did not significantly crossreact; also recorded: did not inhibit”.
